# US20220041681A1 (MEDIMMUNE LIMITED, priority 2016, published 2022)
# Test system: Healthy volunteer
# Assay: Phase 1 single-ascending dose study
# Conditions: for Median glucose peak after breakfast: 1 hour post breakfast, 3.5 hours post dose; for Median glucose peak after dinner: 1 hour post dinner, […] post dose; for Median glucose peak after lunch: 1 hour post lunch, 7 hours post dose; for Overall daily food intake compared with placebo: across breakfast, lunch and dinner
# [1] = Total G933, N = 36, subjects n (%)
structure (smiles),measurement,setting,value
CCCCCCCCCCCCCCCC(=O)N[C@@H](CCC(=O)NCCCC[C@H](NC(=O)[C@H](CC(=O)O)NC(=O)[C@H](CO)NC(=O)C(NC(=O)[C@H](Cc1ccccc1)NC(=O)C(NC(=O)CNC(=O)[C@H](CCC(N)=O)NC(=O)[C@H](CO)NC(=O)[C@@H](N)Cc1cnc[nH]1)[C@@H](C)O)[C@@H](C)O)C(=O)N[C@@H](CO)C(=O)N[C@@H](CCC(=O)O)C(=O)N[C@@H](Cc1ccc(O)cc1)C(=O)N[C@@H](CC(C)C)C(=O)N[C@@H](CC(=O)O)C(=O)N[C@@H](CO)C(=O)N[C@@H](CCC(=O)O)C(=O)N[C@@H](CCCNC(=N)N)C(=O)N[C@@H](C)C(=O)N[C@@H](CCCNC(=N)N)C(=O)N[C@@H](CC(=O)O)C(=O)N[C@@H](Cc1ccccc1)C(=O)N[C@H](C(=O)N[C@@H](C)C(=O)N[C@@H](Cc1c[nH]c2ccccc12)C(=O)N[C@@H](CC(C)C)C(=O)N[C@@H](CCC(=O)O)C(=O)N[C@@H](C)C(=O)NCC(=O)NCC(=O)O)C(C)C)C(=O)O (some centres unmarked) [Peptide G933],TEAE: Gastrointestinal Disorders,"150 μg, N = 6, subjects n (%)",5 (83.3%)
same,TEAE: Headache,"150 μg, N = 6, subjects n (%)",1 (16.7%)
same,TEAE: Immune System Disorders,"150 μg, N = 6, subjects n (%)",0
same,TEAE: Injury associated with device,"150 μg, N = 6, subjects n (%)",0
same,TEAE: Injury poisoning and procedural complications,"150 μg, N = 6, subjects n (%)",0
same,TEAE: Metabolism and nutrition disorders,"150 μg, N = 6, subjects n (%)",2 (33.3%)
same,TEAE: Musculoskeletal and connective tissue disorders,"150 μg, N = 6, subjects n (%)",0
same,TEAE: Musculoskeletal chest pain,"150 μg, N = 6, subjects n (%)",0
same,TEAE: Nasopharyngitis,"150 μg, N = 6, subjects n (%)",0
same,TEAE: Nausea,"150 μg, N = 6, subjects n (%)",4 (66.7%)
same,TEAE: Nervous system disorders,"150 μg, N = 6, subjects n (%)",1 (16.7%)
same,TEAE: Oropharyngeal pain,"150 μg, N = 6, subjects n (%)",1 (16.7%)
same,TEAE: Procedural dizziness,"150 μg, N = 6, subjects n (%)",0
same,"TEAE: Respiratory, thoracic and mediastinal disorders","150 μg, N = 6, subjects n (%)",1 (16.7%)
same,TEAE: Seasonal allergy,"150 μg, N = 6, subjects n (%)",0
same,TEAE: Subjects with at least one event,"150 μg, N = 6, subjects n (%)",5 (83.3%)
same,TEAE: Ventricular extrasystoles,"150 μg, N = 6, subjects n (%)",0
same,TEAE: Vomiting,"150 μg, N = 6, subjects n (%)",4 (66.7%)
same,vomiting episodes,"300 μg dose, 5 subjects",Thirty
same,tolerability,300 μg single SC dose,not tolerated
same,TEAE: Abdominal distension,"300 μg, N = 6, subjects n (%)",0
same,TEAE: Abdominal pain,"300 μg, N = 6, subjects n (%)",0
same,TEAE: Application site erosion,"300 μg, N = 6, subjects n (%)",0
same,TEAE: Arrhythmia,"300 μg, N = 6, subjects n (%)",0
same,TEAE: Atrioventricular block second degree,"300 μg, N = 6, subjects n (%)",0
same,TEAE: Cardiac Disorders,"300 μg, N = 6, subjects n (%)",1 (16.7%)
same,TEAE: Decreased appetite,"300 μg, N = 6, subjects n (%)",0
same,TEAE: Diarrhea,"300 μg, N = 6, subjects n (%)",0
same,TEAE: Dizziness,"300 μg, N = 6, subjects n (%)",1 (16.7%)
same,TEAE: Gastrointestinal Disorders,"300 μg, N = 6, subjects n (%)",5 (83.3%)
same,TEAE: Headache,"300 μg, N = 6, subjects n (%)",0
same,TEAE: Immune System Disorders,"300 μg, N = 6, subjects n (%)",0
same,TEAE: Injury associated with device,"300 μg, N = 6, subjects n (%)",1 (16.7%)
same,TEAE: Injury poisoning and procedural complications,"300 μg, N = 6, subjects n (%)",0
same,TEAE: Metabolism and nutrition disorders,"300 μg, N = 6, subjects n (%)",0
same,TEAE: Musculoskeletal and connective tissue disorders,"300 μg, N = 6, subjects n (%)",0
same,TEAE: Musculoskeletal chest pain,"300 μg, N = 6, subjects n (%)",0
same,TEAE: Nasopharyngitis,"300 μg, N = 6, subjects n (%)",0
same,TEAE: Nausea,"300 μg, N = 6, subjects n (%)",3 (50.0%)
same,TEAE: Oropharyngeal pain,"300 μg, N = 6, subjects n (%)",0
same,TEAE: Procedural dizziness,"300 μg, N = 6, subjects n (%)",0
same,"TEAE: Respiratory, thoracic and mediastinal disorders","300 μg, N = 6, subjects n (%)",0
same,TEAE: Seasonal allergy,"300 μg, N = 6, subjects n (%)",0
same,TEAE: Subjects with at least one event,"300 μg, N = 6, subjects n (%)",5 (83.3%)
same,TEAE: Ventricular extrasystoles,"300 μg, N = 6, subjects n (%)",1 (16.7%)
same,TEAE: Vomiting,"300 μg, N = 6, subjects n (%)",5 (83.3%)
same,TEAE: Abdominal distension,[1],2 (5.6%)
same,TEAE: Abdominal pain,[1],1 (2.8%)
same,TEAE: Application site erosion,[1],1 (2.8%)
same,TEAE: Arrhythmia,[1],1 (2.8%)
same,TEAE: Atrioventricular block second degree,[1],1 (2.8%)
same,TEAE: Cardiac Disorders,[1],3 (8.3%)
same,TEAE: Decreased appetite,[1],2 (5.6%)
same,TEAE: Diarrhea,[1],1 (2.8%)
same,TEAE: Dizziness,[1],5 (13.9%)
same,TEAE: Gastrointestinal Disorders,[1],12 (33.3%)
same,TEAE: Headache,[1],4 (11.1%)
same,TEAE: Immune System Disorders,[1],1 (2.8%)
same,TEAE: Injury associated with device,[1],1 (2.8%)
same,TEAE: Injury poisoning and procedural complications,[1],1 (2.8%)
same,TEAE: Metabolism and nutrition disorders,[1],2 (5.6%)
same,TEAE: Musculoskeletal and connective tissue disorders,[1],1 (2.8%)
same,TEAE: Musculoskeletal chest pain,[1],1 (2.8%)
same,TEAE: Nasopharyngitis,[1],1 (2.8%)
same,TEAE: Nausea,[1],8 (22.2%)
same,TEAE: Oropharyngeal pain,[1],1 (2.8%)
same,TEAE: Procedural dizziness,[1],1 (2.8%)
same,"TEAE: Respiratory, thoracic and mediastinal disorders",[1],1 (2.8%)
same,TEAE: Seasonal allergy,[1],1 (2.8%)
same,TEAE: Subjects with at least one event,[1],21 (58.3%)
same,TEAE: Ventricular extrasystoles,[1],1 (2.8%)
same,TEAE: Vomiting,[1],10 (27.8%)
same,severity of treatment-emergent adverse events,all doses,Grade 1 (mild) or Grade 2 (moderate)
same,overall daily food intake,"all doses compared with placebo, in words",reduction in overall daily food intake
same,plasma glucose levels,"all doses, around meal times, in words",glucose lowering effect
same,ADA positive subjects,baseline or post-baseline,No subjects were ADA positive
same,"tolerability with respect to nausea, vomiting, tachycardia and blood pressure",doses up to 150 μg,acceptable
same,geometric mean t1/2,single SC dose,10 to 12 h
same,Median diastolic BP maximum post dose change,single dose 5 μg,13 mm Hg
same,Number of subjects with vomiting,single dose 5 μg,0(0)
same,vomiting episodes,single dose 5 μg,0(0)
same,Median glucose peak after breakfast,single dose 5 μg,6.2 mmol/L
same,Median glucose peak after dinner,single dose 5 μg,7.0 mmol/L
same,Median glucose peak after lunch,single dose 5 μg,4.9 mmol/L
same,Overall daily food intake compared with placebo,single dose 5 μg,100%
same,Median diastolic BP maximum post dose change,single dose 10 μg,8 mm Hg
same,Number of subjects with vomiting,single dose 10 μg,0(0)
same,vomiting episodes,single dose 10 μg,0(0)
same,Median glucose peak after breakfast,single dose 10 μg,5.8 mmol/L
same,Median glucose peak after dinner,single dose 10 μg,6.0 mmol/L
same,Median glucose peak after lunch,single dose 10 μg,5.1 mmol/L
same,Overall daily food intake compared with placebo,single dose 10 μg,100%
same,Number of subjects with vomiting,single dose 30 μg,0(0)
same,vomiting episodes,single dose 30 μg,0(0)
same,Median glucose peak after breakfast,single dose 30 μg,5.4 mmol/L
same,Median glucose peak after dinner,single dose 30 μg,5.2 mmol/L
same,Median glucose peak after lunch,single dose 30 μg,4.4 mmol/L
same,Overall daily food intake compared with placebo,single dose 30 μg,96%
same,Median diastolic BP maximum post dose change,single dose 100 μg,16 mm Hg
same,Number of subjects with vomiting,single dose 100 μg,1(1)
same,vomiting episodes,single dose 100 μg,1(1)
same,Median glucose peak after breakfast,single dose 100 μg,5.5 mmol/L
same,Median glucose peak after dinner,single dose 100 μg,5.2 mmol/L
same,Median glucose peak after lunch,single dose 100 μg,4.7 mmol/L
same,Overall daily food intake compared with placebo,single dose 100 μg,82%
same,Median diastolic BP maximum post dose change,single dose 150 μg,15 mm Hg
same,Number of subjects with vomiting,single dose 150 μg,4
same,vomiting episodes,single dose 150 μg,9
same,Median glucose peak after breakfast,single dose 150 μg,5.1 mmol/L
same,Median glucose peak after dinner,single dose 150 μg,5.2 mmol/L
same,Median glucose peak after lunch,single dose 150 μg,5.1 mmol/L
same,Overall daily food intake compared with placebo,single dose 150 μg,60%
same,Median diastolic BP maximum post dose change,single dose 300 μg,19 mm Hg
same,Number of subjects with vomiting,single dose 300 μg,5
same,vomiting episodes,single dose 300 μg,30
same,Median glucose peak after breakfast,single dose 300 μg,4.7 mmol/L
same,Median glucose peak after dinner,single dose 300 μg,4.9 mmol/L
same,Median glucose peak after lunch,single dose 300 μg,5.1 mmol/L
same,Overall daily food intake compared with placebo,single dose 300 μg,23%
